How the values were obtained:
[1] = biological target: T1, human sphingosine-1-phosphate receptor 1 (S1P1) (Homo sapiens, UniProt P21453); test: Inhibition of cAMP production (HTRF cAMP HiRange), S1P1 CHO-K1 cells; assay type: cell-based; conditions: for Emax: CHO-K1, efficacy normalized to maximum efficacy of fingolimod, read-out: hS1P1 CAMP SPAN; for EC50: read-out: hS1P1 CAMP pEC50 (converted)
In short: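 CHO-K1 cells co-expressing human S1P1 (C-terminal ProLink tag) and EA-β-arrestin2, plated overnight; after 30 min compound incubation at 37 °C, intracellular cAMP measured by HTRF TR-FRET following 1 h at room temperature. Values normalized to fingolimod.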
Target sequence in this assay (P21453 whole entry): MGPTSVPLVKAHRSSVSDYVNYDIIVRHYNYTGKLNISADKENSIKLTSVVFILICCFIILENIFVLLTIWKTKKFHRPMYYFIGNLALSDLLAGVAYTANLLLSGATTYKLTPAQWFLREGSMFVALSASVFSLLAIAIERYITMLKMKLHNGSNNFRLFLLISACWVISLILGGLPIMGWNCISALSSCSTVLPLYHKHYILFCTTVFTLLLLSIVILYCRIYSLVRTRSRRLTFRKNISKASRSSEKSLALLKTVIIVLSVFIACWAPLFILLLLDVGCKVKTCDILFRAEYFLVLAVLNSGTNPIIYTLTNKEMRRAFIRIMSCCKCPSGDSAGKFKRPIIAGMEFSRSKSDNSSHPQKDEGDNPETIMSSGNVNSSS

[2] = biological target: T1, human sphingosine-1-phosphate receptor 1 (S1P1); test: β-Arrestin2 recruitment assay (PathHunter), S1P1 CHO-K1 cells; assay type: cell-based; conditions: for Emax: efficacy normalized to maximum efficacy of fingolimod, read-out: hS1P1 B-arrestin2 SPAN; for EC50: β-arrestin2 recruitment, read-out: hS1P1 B-arrestin2 pEC50 (converted)
In short: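 CHO-K1 cells co-expressing EA-β-arrestin2 and ProLink-tagged human S1P1 plated overnight, then stimulated 60 min at 37 °C. Enzyme-fragment complementation (β-galactosidase) detected after 1 h at room temperature by luminescence; values normalized to fingolimod.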
Target sequence in this assay (P21453 whole entry): as above
Target sequence in this assay (P32121 whole entry partner): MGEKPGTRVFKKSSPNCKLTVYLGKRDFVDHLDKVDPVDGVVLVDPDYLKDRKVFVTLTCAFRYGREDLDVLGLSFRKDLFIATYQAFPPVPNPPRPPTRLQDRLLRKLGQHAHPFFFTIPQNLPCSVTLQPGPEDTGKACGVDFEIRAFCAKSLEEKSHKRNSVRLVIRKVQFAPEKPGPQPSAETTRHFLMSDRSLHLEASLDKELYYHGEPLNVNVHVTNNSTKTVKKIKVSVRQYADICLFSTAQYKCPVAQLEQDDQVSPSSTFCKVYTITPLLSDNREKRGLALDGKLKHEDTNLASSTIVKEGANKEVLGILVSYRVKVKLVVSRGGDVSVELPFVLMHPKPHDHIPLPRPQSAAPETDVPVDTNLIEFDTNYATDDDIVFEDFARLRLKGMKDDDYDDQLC

[3] = inhibition of cAMP production, S1P1
[4] = inhibition of cAMP production, potency
[5] = CHO-K1, β-arrestin2 recruitment

| Structure (SMILES) | Emax [1] | EC50 [1, 3] | Emax ([2]; CHO-K1) | EC50 ([2]; S1P1) | Emax ([1]; inhibition of cAMP production) | EC50 [1, 4] | Emax [2, 5] | EC50 ([2]; potency) |
| --- | --- | --- | --- | --- | --- | --- | --- | --- |
| CC(C)Nc1ccc(-c2nc(-c3ccc4c(c3)C(=O)NCC4)no2)cc1C#N [Compound 514, 2-(isopropylamino)-5-(3-(l-oxo-1,2,3,4-tetra-hydroisoquinolin-7-yl)-1,2,4-oxadiazol-5-yl)benzonitrile] | > 75% | < 316 nM | < 75% | < 10 µM |  |  |  |  |
| Cc1ccncc1-c1noc(-c2ccc3ccsc3n2)n1 [Compound 376, 4-methyl-3-(5-{thieno[2,3-b]pyridin-6-yl}-1,2,4-oxadiazol-3-yl)pyridine] | < 75% | > 316 nM | < 75% | > 10 µM |  |  |  |  |
| COc1cc(NC(C)=O)ccc1-c1nc(-c2ccncc2)no1 [Compound 582, N-{3-methoxy-4-[3-(pyridin-4-yl)-1,2,4-oxadiazol-5-yl]phenyl}acetamide] | > 75% | > 316 nM | < 75% | > 10 µM |  |  |  |  |
| CC(C)n1nnc2cc(-c3nc(-c4cncnc4)no3)ccc21 [Compound 249, 1-(propan-2-yl)-5-[3-(pyrimidin-5-yl)-1,2,4-oxadiazol-5-yl]-1H-1,2,3-benzotriazole] |  |  |  |  | > 75% | > 316 nM | < 75% | > 10 µM |
| CC(C)n1nnc2cc(-c3nc(-c4ccccc4Br)no3)cnc21 [Compound 413, 3-(2-bromophenyl)-5-[3-(propan-2-yl)-3H-[1,2,3]triazolo[4,5-b]pyridin-6-yl]-1,2,4-oxadiazole] | < 75% | < 316 nM | > 75% | < 10 µM |  |  |  |  |
| CC(C)(CO)n1nnc2cc(-c3noc(-c4ccccc4Cl)n3)ccc21 [Compound 618, 2-(5-(5-(2-chloro-phenyl)-1,2,4-oxadiazol-3-yl)-1H-benzo[d][1,2,3]triazol-1-yl)-2-methylpropan-1-ol] | < 75% | > 316 nM | < 75% | < 10 µM |  |  |  |  |
| COC(=O)CCn1nnc2cc(-c3noc(-c4ccccc4Br)n3)ccc21 [Compound 161, methyl 3-(5-(5-(2-bromophenyl)-1,2,4-oxadiazol-3-yl)-1H-benzo[d][1,2,3]triazol-1-yl)propanoate] |  |  |  |  | < 75% | > 316 nM | > 75% | > 10 µM |
| CC(C)n1nnc2cc(-c3cc(-c4ccccc4)n(C)c3)ccc21 [Compound 544, 5-(1-methyl-5-phenyl-1H-pyrrol-3-yl)-1-(propan-2-yl)-1H-1,2,3-benzotriazole] | < 75% | > 316 nM | < 75% | < 10 µM |  |  |  |  |
| Cc1ccccc1-c1noc(-c2cnc3c(c2)nnn3C(C)C)n1 [Compound 382, 3-(2-methylphenyl)-5-[3-(propan-2-yl)-3H-[1,2,3]triazolo[4,5-b]pyridin-6-yl]-1,2,4-oxadiazole] | > 75% | < 316 nM | > 75% | < 10 µM |  |  |  |  |
| CC(C)n1nnc2cc(-c3noc(-c4cccc5c4CCC5=O)n3)ccc21 [Compound 608, 4-{3-[1-(propan-2-yl)-1H-1,2,3-benzo-triazol-5-yl]-1,2,4-oxadiazol-5-yl}-2,3-dihydro-1H-inden-1-one] | > 75% | < 316 nM | > 75% | < 10 µM |  |  |  |  |
| C=CCNc1ccc(-c2nc(-c3ccc4[nH]c(=O)oc4c3)no2)cc1C#N [Compound 189, 2-(allylamino)-5-(3-(2-oxo-2,3-dihydro-benzo[d]oxazol-6-yl)-1,2,4-oxadiazol-5-yl)benzonitrile] |  |  |  |  | > 75% | < 316 nM | > 75% | < 10 µM |
| CC(C)n1nnc2cc(-c3noc(-c4cccc5c4CCC5O)n3)ccc21 (centres unmarked) [Compound 636, 4-{3-[1-(propan-2-yl)-1H-1,2,3-benzotriazol-5-yl]-1,2,4-oxadiazol-5-yl}-2,3-dihydro-1H-inden-1-ol] | > 75% | < 316 nM | > 75% | < 10 µM |  |  |  |  |
| Cc1ccc2nc(-c3ccc4c(c3)nnn4CC(C)C)oc2c1 [Compound 448, 2-(1-isobutyl-1H-benzo[d][1,2,3]triazol-5-yl)-6-methyl-benzo[d]oxazole] | > 75% | > 316 nM | < 75% | > 10 µM |  |  |  |  |
| Cc1cccc(-c2noc(-c3ccc4c(c3)nnn4C3CCCCC3)n2)c1 [Compound 11, 1-cyclohexyl-5-[3-(3-methylphenyl)-1,2,4-oxadiazol-5-yl]-1H-1,2,3-benzotriazole] |  |  |  |  | < 75% | > 316 nM | < 75% | > 10 µM |
| Cc1nc2cc(-c3nnc(-c4ccc(NC(C)C)c(C#N)c4)o3)ccc2[nH]1 [Compound 560, 5-[5-(2-methy1-1H-1,3-benzodiazol-5-yl)-1,3,4-oxadiazol-2-yl]-2-[(propan-2-yl)amino]benzonitrile] | > 75% | < 316 nM | > 75% | < 10 µM |  |  |  |  |

Second part, the molecule after the results:

| Emax [1] | EC50 [1, 3] | Emax ([2]; CHO-K1) | EC50 ([2]; S1P1) | Emax ([1]; inhibition of cAMP production) | EC50 [1, 4] | Emax [2, 5] | EC50 ([2]; potency) | Structure (SMILES) |
| --- | --- | --- | --- | --- | --- | --- | --- | --- |
| > 75% | < 316 nM | > 75% | < 10 µM |  |  |  |  | COc1ccccc1-c1cnc(-c2ccc3c(c2)nnn3C(C)C)nc1 [Compound 565, 1-isopropyl-5-(5-(2-methoxyphenyl)pyrimidin-2-yl)-1H-benzo[d][1,2,3]triazole] |
| > 75% | < 316 nM | > 75% | < 10 µM |  |  |  |  | CCC1(CC)CC(=O)c2cc(-c3nc(-c4cnccc4C(F)(F)F)no3)ccc2O1 [Compound 558, 2,2-diethyl-6-(3-(4-(trifluoromethyl)pyridin-3-yl)-1,2,4-oxadiazol-5-yl)chroman-4-one] |
| < 75% | < 316 nM | > 75% | < 10 µM |  |  |  |  | CCC1(CC)CC(=O)c2cc(-c3nc(-c4cccs4)no3)ccc2N1 [Compound 591, 2,2-diethyl-6-(3-(thiophen-2-yl)-1,2,4-oxadiazol-5-yl)-2,3-dihydroquinolin-4(1H)-one] |
| < 75% | > 316 nM | < 75% | > 10 µM |  |  |  |  | CCC1(CC)CC(=O)c2cc(-c3nc(-c4ccc(F)nc4)no3)ccc2O1 [Compound 546, 2,2-diethyl-6-(3-(6-fluoropyridin-3-yl)-1,2,4-oxadiazol-5-yl)chroman-4-one] |
|  |  |  |  | > 75% | > 316 nM | < 75% | < 10 µM | CCC1(CC)CC(=O)c2cc(-c3nc(-c4cccc(Cl)c4)no3)ccc2O1 [Compound 261, 6-[3-(3-chlorophenyl)-1,2,4-oxadiazol-5-yl]-2,2-diethyl-chroman-4-one] |
|  |  |  |  | > 75% | > 316 nM | < 75% | > 10 µM | COc1ccccc1-c1cnc(-c2ccc3c(c2)nnn3C(C)C)s1 [Compound 184, 2-(1-isopropyl-1H-benzo[d][1,2,3]triazol-5-yl)-5-(2-methoxy-phenyl)thiazole] |
| < 75% | > 316 nM | < 75% | > 10 µM |  |  |  |  | CCCC1CC(=O)c2ccc(-c3nc(-c4cccnc4)no3)cc2O1 (centres unmarked) [Compound 630, 2-propyl-7-[3-(pyridin-3-yl)-1,2,4-oxadiazol-5-yl]-3,4-dihydro-2H-1-benzopyran-4-one] |
|  |  |  |  | > 75% | > 316 nM | > 75% | > 10 µM | CCC1(CC)CC(=O)c2cc(-c3nnc(-c4ccccc4OC)o3)ccc2O1 [Compound 300, 2,2-diethyl-6-(5-(2-methoxyphenyl)-1,3,4-oxadiazol-2-yl)chroman-4-one] |
